This is an account of results in patent publication US10519134B2, “Pyrazole compounds and methods of making and using same” (Lundbeck La Jolla Research Center, Inc., priority 2015, dated 2019).

In experiment [1] the target is T1, MAGL (Mus musculus, UniProt O35678).
T1 construct: Proteomes (mouse brain membrane fraction or cell lysates); from tissue; host or cells: mouse brain membrane fraction (or cell lysates)
T1 sequence (O35678 1-303): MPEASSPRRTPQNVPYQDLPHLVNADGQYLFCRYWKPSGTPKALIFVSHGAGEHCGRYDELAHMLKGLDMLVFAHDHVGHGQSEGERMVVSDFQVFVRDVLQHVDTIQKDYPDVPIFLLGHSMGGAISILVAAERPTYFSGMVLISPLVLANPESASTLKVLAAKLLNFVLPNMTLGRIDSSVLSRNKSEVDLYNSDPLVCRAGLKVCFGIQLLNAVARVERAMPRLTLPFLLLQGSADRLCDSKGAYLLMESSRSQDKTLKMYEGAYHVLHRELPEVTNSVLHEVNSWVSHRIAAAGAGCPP
As to the kind of experiment: Mouse brain proteomes from inhibitor treated mice (oral gavage, sacrificed 4 h after administration). The note with it: read-out: MAGL % inh. 5 mg/kg. In kind it is in vivo. In outline:
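Brains were collected 4 h after oral gavage dosing of wild-type C57Bl/6J mice, vehicle polyethylene glycol. Proteomes from these brains were then analyzed for MAGL and other serine hydrolase activity.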

The target in experiment [2] is T2, FAAH (Mus musculus, UniProt O08914).
T2 construct: Proteomes (mouse brain membrane fraction or cell lysates); from tissue; host or cells: mouse brain membrane fraction (or cell lysates)
T2 sequence (O08914 1-579): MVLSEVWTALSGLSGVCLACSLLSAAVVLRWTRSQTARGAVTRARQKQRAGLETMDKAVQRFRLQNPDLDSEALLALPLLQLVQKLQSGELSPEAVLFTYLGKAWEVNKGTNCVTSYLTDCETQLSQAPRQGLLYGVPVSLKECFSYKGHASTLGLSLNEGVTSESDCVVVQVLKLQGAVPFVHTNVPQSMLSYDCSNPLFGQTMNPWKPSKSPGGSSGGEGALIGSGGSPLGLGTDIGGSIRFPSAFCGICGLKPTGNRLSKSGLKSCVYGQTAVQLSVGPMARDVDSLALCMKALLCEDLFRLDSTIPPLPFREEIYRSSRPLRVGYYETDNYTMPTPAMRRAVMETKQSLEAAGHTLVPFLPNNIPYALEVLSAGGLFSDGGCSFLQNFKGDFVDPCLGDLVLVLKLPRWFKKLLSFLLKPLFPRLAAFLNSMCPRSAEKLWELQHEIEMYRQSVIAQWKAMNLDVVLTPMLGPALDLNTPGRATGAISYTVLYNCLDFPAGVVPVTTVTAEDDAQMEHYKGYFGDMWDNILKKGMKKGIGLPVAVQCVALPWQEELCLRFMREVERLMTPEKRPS
As to the kind of experiment: In vitro competitive activity-based protein profiling (mouse), FAAH gel band. In kind it is biochemical. As to conditions: for pIC50: mouse; for inhibition at 1 µM: read-out: FAAH % inh. 1 μM. The method in brief:
(§1)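 Competitive ABPP: inhibitors at varying concentrations were given 30 min at 37 °C with mouse brain membranes or cell lysates (1.0 mg/mL total protein) before 30 min labelling by FP-Rh or HT-01 (stock 50 μM in DMSO). Residual hydrolase activity read as in-gel fluorescence of MAGL and FAAH bands.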

Experiment [3] has as its target T3, MAGL (Homo sapiens, UniProt Q99685).
T3 construct: Proteomes (human prefrontal cortex or cell membrane fractions); from tissue; host or cells: human prefrontal cortex (or cell membrane fractions)
T3 sequence (Q99685 1-303): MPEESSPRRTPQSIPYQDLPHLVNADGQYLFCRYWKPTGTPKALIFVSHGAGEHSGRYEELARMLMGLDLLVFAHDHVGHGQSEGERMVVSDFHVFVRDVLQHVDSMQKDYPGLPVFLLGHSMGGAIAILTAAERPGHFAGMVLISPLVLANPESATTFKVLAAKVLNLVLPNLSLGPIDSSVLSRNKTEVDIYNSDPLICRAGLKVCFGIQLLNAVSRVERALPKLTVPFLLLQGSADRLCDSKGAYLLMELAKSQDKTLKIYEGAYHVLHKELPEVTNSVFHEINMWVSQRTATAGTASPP
Briefly: In vitro competitive activity-based protein profiling (human), MAGL gel band. In kind it is biochemical. The method in brief:
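Human prefrontal cortex or cell membrane proteomes (1.0-2.0 mg/mL protein) preincubated with inhibitors 30 min at 37° C, then labelled with FP-Rh or JW912 probe 30 min at room temperature. Residual MAGL activity read as fluorescent gel-band intensity after SDS-PAGE.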

Experiment [4] addresses T1, MAGL. Briefly: In vitro competitive activity-based protein profiling (mouse), MAGL gel band. The class given is biochemical. The note with it: for pIC50: mouse; for inhibition at 1 µM: read-out: MAGL % inh. 1 μM. The method in brief: as §1

pIC50: −log10 of the molar value.

For orientation: pIC50 means the IC50 on a negative log10 scale, so that one unit is a factor of ten. A higher pIC50 goes with a low IC50. For the compound `CC(=O)Nc1ccn(C(=O)N2CCN(Cc3ccc(C(F)(F)F)cc3N3CCC4(CCOCC4)C3)CC2)n1` [Example 45, N-(1-(4-(2-(8-oxa-2-azaspiro[4.5]decan-2-yl)-4-(trifluoromethyl)benzyl)piperazine-1-carbonyl)-1H-pyrazol-3-yl)acetamide], the inhibition at 5 mg/kg in experiment [1] fell in the range of 0 to 25%. In addition, the pIC50 in experiment [2] is 5.00 to 6.00; in experiment [3] it was 6.00 to 7.00; in experiment [4], no less than 7.00. For the same compound, the inhibition at 1 µM was 0 to 25% in experiment [2] and no less than 75% in experiment [4].
Turning to `CC(=O)Nc1ccn(C(=O)N2CCN(Cc3ccc(Cl)cc3N3CCN(S(C)(=O)=O)CC3)CC2)n1` [Example 52, N-(1-(4-(4-chloro-2-(4-(methylsulfonyl)piperazin-1-yl)benzyl)piperazine-1-carbonyl)-1H-pyrazol-3-yl)acetamide], the inhibition at 5 mg/kg in experiment [1] fell in the range of 0 to 25%. The pIC50 in experiment [2] is 5.00 to 6.00; in experiment [3], no less than 7.00; in experiment [4], no less than 7.00. Also, the inhibition at 1 µM in experiment [2] was 0 to 25%; in experiment [4], no less than 75%.
On to `CC(=O)Nc1ccn(C(=O)N2CCC3(CCCN3Cc3ccc(Cl)c(C)c3)CC2)n1` [Example 94, N-(1-(1-(4-chloro-3-methylbenzyl)-1,8-diazaspiro[4.5]decane-8-carbonyl)-1H-pyrazol-3-yl)acetamide], for which the inhibition at 5 mg/kg in experiment [1] was no less than 75%. For the same compound, the pIC50 in experiment [2] is 5.00 to 6.00; in experiment [3], no less than 7.00; in experiment [4], no less than 7.00. In addition, the inhibition at 1 µM in experiment [2] is 0 to 25%; in experiment [4], no less than 75%.
Regarding `CC(=O)Nc1ccn(C(=O)N2CCC3(CCCN3Cc3ccc(C)c(Cl)c3)CC2)n1` [Example 96, N-(1-(1-(3-chloro-4-methylbenzyl)-1,8-diazaspiro[4.5]decane-8-carbonyl)-1H-pyrazol-3-yl)acetamide], the inhibition at 5 mg/kg in experiment [1] is no less than 75%. Besides, the negative-log IC50 (pIC50) in experiment [2] is 5.00 to 6.00; in experiment [3], no less than 7.00; in experiment [4] it was no less than 7.00. For the same compound, the inhibition at 1 µM was 0 to 25% in experiment [2] and no less than 75% in experiment [4].
Take `CC(=O)Nc1ccn(C(=O)N2CCN(Cc3ccc(C(F)(F)F)cc3N3CCN4CCC[C@H]4C3)CC2)n1` [Example 267, (S)-N-(1-(4-(2-(hexahydropyrrolo[1,2-a]pyrazin-2(1H)-yl)-4-(trifluoromethyl)benzyl)piperazine-1-carbonyl)-1H-pyrazol-3-yl)acetamide]: the pIC50 in experiment [2] was 5.00 to 6.00; in experiment [3], no less than 7.00; in experiment [4], no less than 7.00. Besides, the inhibition at 1 µM is 0 to 25% in experiment [2] and no less than 75% in experiment [4].
Consider `CC(=O)Nc1ccn(C(=O)N2CCN(Cc3ccc(C(F)(F)F)cc3N3CCN4CCC[C@@H]4C3)CC2)n1` [Example 268, (R)-N-(1-(4-(2-(hexahydropyrrolo[1,2-a]pyrazin-2(1H)-yl)-4-(trifluoromethyl)benzyl)piperazine-1-carbonyl)-1H-pyrazol-3-yl)acetamide], for which the figures for the pIC50 in experiment [2], in experiment [3] and in experiment [4] were 5.00 to 6.00, no less than 7.00 and no less than 7.00, respectively. In addition, the inhibition at 1 µM in experiment [2] was 0 to 25%; in experiment [4], no less than 75%.
Take `CC(=O)NC1CCN(c2cc(C(F)(F)F)ccc2CN2CCN(C(=O)n3ccc(NS(C)(=O)=O)n3)CC2)CC1` [Example 269, N-(1-(2-((4-(3-(methylsulfonamido)-1H-pyrazole-1-carbonyl)piperazin-1-yl)methyl)-5-(trifluoromethyl)phenyl)piperidin-4-yl)acetamide]: the results for the pIC50 in experiment [2], in experiment [3] and in experiment [4] were 5.00 to 6.00, no less than 7.00 and no less than 7.00, respectively. Also, the inhibition at 1 µM is 0 to 25% in experiment [2] and no less than 75% in experiment [4].
Consider `CC(C)(O)C1CCN(c2cc(C(F)(F)F)ccc2CN2CCN(C(=O)n3ccc(NS(C)(=O)=O)n3)CC2)CC1` [Example 270, N-(1-(4-(2-(4-(2-hydroxypropan-2-yl)piperidin-1-yl)-4-(trifluoromethyl)benzyl)piperazine-1-carbonyl)-1H-pyrazol-3-yl) methanesulfonamide], for which the pIC50 in experiment [2] is 5.00 to 6.00; in experiment [3], no less than 7.00; in experiment [4], no less than 7.00. Further, the inhibition at 1 µM is 0 to 25% in experiment [2] and no less than 75% in experiment [4].
`CS(=O)(=O)Nc1ccn(C(=O)N2CCN(Cc3ccc(C(F)(F)F)c(N4CCC(F)CC4)c3)CC2)n1` [Example 271, N-(1-(4-(3-(4-fluoropiperidin-1-yl)-4-(trifluoromethyl)benzyl)piperazine-1-carbonyl)-1H-pyrazol-3-yl) methanesulfonamide]: the inhibition at 1 µM was 0 to 25% in experiment [2] and no less than 75% in experiment [4]. The compound further had a pIC50 in experiment [3] of no less than 7.00.
On the same counts, the results for `CC(=O)Nc1ccn(C(=O)N2CCN(Cc3ccc(C(F)(F)F)cc3C3CCN(CC(=O)O)CC3)CC2)n1` [Example 285, 2-(4-(2-((4-(3-acetamido-1H-pyrazole-1-carbonyl)piperazin-1-yl)methyl)-5-(trifluoromethyl)phenyl)piperidin-1-yl)acetic acid] are 0 to 25%, no less than 75% and no less than 7.00.
The corresponding values for `CS(=O)(=O)Nc1ccn(C(=O)N2CCN(Cc3ccc(C(F)(F)F)c(N4CCN5CCC[C@H]5C4)c3)CC2)n1` [Example 287, (S)-N-(1-(4-(3-(hexahydropyrrolo[1,2-a]pyrazin-2(1H)-yl)-4-(trifluoromethyl)benzyl)piperazine-1-carbonyl)-1H-pyrazol-3-yl) methanesulfonamide] are 0 to 25%, no less than 75% and no less than 7.00.
As to `CS(=O)(=O)Nc1ccn(C(=O)N2CCN(Cc3ccc(C(F)(F)F)c(N4CCC(O)CC4)c3)CC2)n1` [Example 289, N-(1-(4-(3-(4-hydroxypiperidin-1-yl)-4-(trifluoromethyl)benzyl)piperazine-1-carbonyl)-1H-pyrazol-3-yl) methanesulfonamide], the inhibition at 1 µM is 0 to 25% in experiment [2] and no less than 75% in experiment [4]. The compound further showed a negative logarithm of the IC50 (pIC50) in experiment [3] of no less than 7.00.
On to `CS(=O)(=O)Nc1ccn(C(=O)N2CCN(Cc3ccc(C(F)(F)F)c(N4CCC(C(N)=O)CC4)c3)CC2)n1` [Example 291, 1-(5-((4-(3-(methylsulfonamido)-1H-pyrazole-1-carbonyl)piperazin-1-yl)methyl)-2-(trifluoromethyl)phenyl)piperidine-4-carboxamide], for which the inhibition at 1 µM in experiment [2] was 0 to 25%; in experiment [3] (at 1 μM, read-out: MAGL human % inh at 1 μM) it was 25%; in experiment [4] it was 0 to 25%.
Take `CS(=O)(=O)Nc1ccn(C(=O)N2CCN(Cc3ccc(Cl)c(N4CC[C@H](O)C4)c3)CC2)n1` [Example 292, (S)-N-(1-(4-(4-chloro-3-(3-hydroxypyrrolidin-1-yl)benzyl)piperazine-1-carbonyl)-1H-pyrazol-3-yl) methanesulfonamide]: the inhibition at 1 µM in experiment [2] was 0 to 25%; in experiment [4], no less than 75%. This compound had a pIC50 in experiment [3] of no less than 7.00.
For the compound `CS(=O)(=O)Nc1ccn(C(=O)N2CCN(Cc3ccc(Cl)c(N4CC[C@@H](O)C4)c3)CC2)n1` [Example 293, (R)-N-(1-(4-(4-chloro-3-(3-hydroxypyrrolidin-1-yl)benzyl)piperazine-1-carbonyl)-1H-pyrazol-3-yl) methanesulfonamide], the inhibition at 1 µM in experiment [2] was 0 to 25%; in experiment [4], no less than 75%. The pIC50 in experiment [3] was no less than 7.00.
